Experimental data taken from PubChem BioAssay AID1963985 (Molecular Pharmacology Branch, DTP, NCI, 2024).
Each block holds one molecule with its values, some of them ahead of it.

Tested on: 252836-082-R-J2-PDC tumor spheroids, viability
Test: Anticancer human tumor 252836-082-R-J2-PDC patient-derived head and neck squamous cell carcinoma cell line growth inhibition [PI3K]
Conditions: spheroids with HUVEC and MSC; for IC50: curve of first compound; for viability, T/C: stronger effect = lower value
In short: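 Tumor cells grown as multi-cell spheroids with HUVEC endothelial cells and MSC fibroblast-like stroma were treated with targeted agents combined with inavolisib, alpelisib, duvelisib or copanlisib. Doses fell in half-log steps from near clinical Cmax, else from 10 microM. Viability was measured.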
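Further: spheroids exposed to agents for seven days before readout.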
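Wherever viability, T/C is given: percent of vehicle DMSO control viability so 100% = untreated growth.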

IC50 (second compound 0.0316 µM): > 10000 nM
IC50 (second compound 0.1 µM): > 10000 nM
IC50 (second compound 0.316 µM): > 10000 nM
IC50 (second compound 1 µM): > 10000 nM
IC50 (second compound 3.16 µM): > 10000 nM
IC50 (second compound 10 µM): < 31.6 nM
Structure (SMILES): CNC(=O)c1ccc(N2C(=S)N(c3ccc(C#N)c(C(F)(F)F)c3)C(=O)C2(C)C)cc1F + Cc1nc(NC(=O)N2CCCC2C(N)=O)sc1-c1ccnc(C(C)(C)C(F)(F)F)c1
viability, T/C (second compound 0.0316 µM, first compound 0.0316 µM): 99.5%
viability, T/C (second compound 0.0316 µM, first compound 0.1 µM): 93.2%
viability, T/C (second compound 0.0316 µM, first compound 0.316 µM): 103%
viability, T/C (second compound 0.0316 µM, first compound 1 µM): 91%
viability, T/C (second compound 0.0316 µM, first compound 3.16 µM): 94.7%
viability, T/C (second compound 0.0316 µM, first compound 10 µM): 84.8%
viability, T/C (second compound 0.1 µM, first compound 0.0316 µM): 87.3%
viability, T/C (second compound 0.1 µM, first compound 0.1 µM): 75.7%
viability, T/C (second compound 0.1 µM, first compound 0.316 µM): 80.8%
viability, T/C (second compound 0.1 µM, first compound 1 µM): 86.5%
viability, T/C (second compound 0.1 µM, first compound 3.16 µM): 99.1%
viability, T/C (second compound 0.1 µM, first compound 10 µM): 82.1%
viability, T/C (second compound 0.316 µM, first compound 0.0316 µM): 68%
viability, T/C (second compound 0.316 µM, first compound 0.1 µM): 72%
viability, T/C (second compound 0.316 µM, first compound 0.316 µM): 82%
viability, T/C (second compound 0.316 µM, first compound 1 µM): 83.5%
viability, T/C (second compound 0.316 µM, first compound 3.16 µM): 74.1%
viability, T/C (second compound 0.316 µM, first compound 10 µM): 66%
viability, T/C (second compound 1 µM, first compound 0.0316 µM): 63%
viability, T/C (second compound 1 µM, first compound 0.1 µM): 61.8%
viability, T/C (second compound 1 µM, first compound 0.316 µM): 51.7%
viability, T/C (second compound 1 µM, first compound 1 µM): 68.3%
viability, T/C (second compound 1 µM, first compound 3.16 µM): 60.8%
viability, T/C (second compound 1 µM, first compound 10 µM): 54.5%
viability, T/C (second compound 3.16 µM, first compound 0.0316 µM): 45.1%
viability, T/C (second compound 3.16 µM, first compound 0.1 µM): 55.9%
viability, T/C (second compound 3.16 µM, first compound 0.316 µM): 49.5%
viability, T/C (second compound 3.16 µM, first compound 1 µM): 49.2%
viability, T/C (second compound 3.16 µM, first compound 3.16 µM): 54.3%
viability, T/C (second compound 3.16 µM, first compound 10 µM): 46.1%
viability, T/C (second compound 10 µM, first compound 0.0316 µM): 27.4%
viability, T/C (second compound 10 µM, first compound 0.1 µM): 36.2%
viability, T/C (second compound 10 µM, first compound 0.316 µM): 33.9%
viability, T/C (second compound 10 µM, first compound 1 µM): 35.4%
viability, T/C (second compound 10 µM, first compound 3.16 µM): 40.3%
viability, T/C (second compound 10 µM, first compound 10 µM): 35.8%

IC50 (second compound 0.0316 µM): > 3000 nM
IC50 (second compound 0.1 µM): 2410 nM
IC50 (second compound 0.316 µM): 1460 nM
IC50 (second compound 1 µM): 554 nM
IC50 (second compound 3.16 µM): < 9.49 nM
IC50 (second compound 10 µM): < 9.49 nM
Structure (SMILES): Cn1cnc2c(F)c(Nc3ccc(Br)cc3Cl)c(C(=O)NOCCO)cc21 + Cc1nc(NC(=O)N2CCCC2C(N)=O)sc1-c1ccnc(C(C)(C)C(F)(F)F)c1
viability, T/C (second compound 0.0316 µM, first compound 0.00949 µM): 93%
viability, T/C (second compound 0.0316 µM, first compound 0.03 µM): 67.1%
viability, T/C (second compound 0.0316 µM, first compound 0.0949 µM): 83%
viability, T/C (second compound 0.0316 µM, first compound 0.3 µM): 82.7%
viability, T/C (second compound 0.0316 µM, first compound 0.949 µM): 61.2%
viability, T/C (second compound 0.0316 µM, first compound 3 µM): 58.4%
viability, T/C (second compound 0.1 µM, first compound 0.00949 µM): 79.9%
viability, T/C (second compound 0.1 µM, first compound 0.03 µM): 74.5%
viability, T/C (second compound 0.1 µM, first compound 0.0949 µM): 73.3%
viability, T/C (second compound 0.1 µM, first compound 0.3 µM): 85.1%
viability, T/C (second compound 0.1 µM, first compound 0.949 µM): 67.9%
viability, T/C (second compound 0.1 µM, first compound 3 µM): 45.4%
viability, T/C (second compound 0.316 µM, first compound 0.00949 µM): 66.9%
viability, T/C (second compound 0.316 µM, first compound 0.03 µM): 68.1%
viability, T/C (second compound 0.316 µM, first compound 0.0949 µM): 65.2%
viability, T/C (second compound 0.316 µM, first compound 0.3 µM): 68.3%
viability, T/C (second compound 0.316 µM, first compound 0.949 µM): 55.7%
viability, T/C (second compound 0.316 µM, first compound 3 µM): 37.5%
viability, T/C (second compound 1 µM, first compound 0.00949 µM): 61.7%
viability, T/C (second compound 1 µM, first compound 0.03 µM): 50.1%
viability, T/C (second compound 1 µM, first compound 0.0949 µM): 51%
viability, T/C (second compound 1 µM, first compound 0.3 µM): 47.6%
viability, T/C (second compound 1 µM, first compound 0.949 µM): 50.1%
viability, T/C (second compound 1 µM, first compound 3 µM): 28.9%
viability, T/C (second compound 3.16 µM, first compound 0.00949 µM): 45.8%
viability, T/C (second compound 3.16 µM, first compound 0.03 µM): 45.6%
viability, T/C (second compound 3.16 µM, first compound 0.0949 µM): 32.2%
viability, T/C (second compound 3.16 µM, first compound 0.3 µM): 35.8%
viability, T/C (second compound 3.16 µM, first compound 0.949 µM): 25.8%
viability, T/C (second compound 3.16 µM, first compound 3 µM): 13.8%
viability, T/C (second compound 10 µM, first compound 0.00949 µM): 26.7%
viability, T/C (second compound 10 µM, first compound 0.03 µM): 29.4%
viability, T/C (second compound 10 µM, first compound 0.0949 µM): 25.8%
viability, T/C (second compound 10 µM, first compound 0.3 µM): 19.4%
viability, T/C (second compound 10 µM, first compound 0.949 µM): 14.2%
viability, T/C (second compound 10 µM, first compound 3 µM): 5.98%
